{
  "source": "paper PMC5216056",
  "about": "(Nature Communications, 2017)",
  "key": {"hGPR55": {"target": "T1, hGPR55 (Homo sapiens, UniProt Q9Y2T6)", "T1 construct": "host or cells: CHO-K1 (PathHunter hGPR55_bgal)", "assay": "cell-based", "conditions": "β-arrestin recruitment"}, "beta 1 (h)": {"target": "T2, beta 1 (h) (Homo sapiens, UniProt P08588)", "T2 construct": "CEREP", "T2 sequence (P08588 whole entry)": "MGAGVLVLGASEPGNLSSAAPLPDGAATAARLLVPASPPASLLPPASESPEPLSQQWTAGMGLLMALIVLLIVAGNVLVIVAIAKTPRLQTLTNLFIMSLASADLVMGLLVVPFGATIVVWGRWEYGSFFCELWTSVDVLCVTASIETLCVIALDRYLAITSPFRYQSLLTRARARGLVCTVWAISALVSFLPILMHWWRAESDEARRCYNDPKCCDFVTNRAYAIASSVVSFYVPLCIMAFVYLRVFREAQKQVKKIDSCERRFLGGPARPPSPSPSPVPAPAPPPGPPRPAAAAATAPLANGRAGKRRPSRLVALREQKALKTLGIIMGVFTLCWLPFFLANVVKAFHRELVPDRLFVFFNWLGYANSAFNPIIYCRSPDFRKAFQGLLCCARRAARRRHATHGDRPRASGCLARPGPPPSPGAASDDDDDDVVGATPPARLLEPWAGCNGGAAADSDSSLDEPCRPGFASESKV", "assay": "biochemical", "assay_type": "binding", "conditions": "10 µM"}, "[1]": {"test_system": "Ca2+ channel (L, diltiazem site)", "assay": "CEREP panel", "assay_type": "binding", "conditions": "10 µM"}, "mu (MOP) (h)": {"target": "T3, mu (MOP) (h) (Homo sapiens, UniProt P35372)", "T3 construct": "CEREP (contract assay)", "T3 sequence (P35372 whole entry)": "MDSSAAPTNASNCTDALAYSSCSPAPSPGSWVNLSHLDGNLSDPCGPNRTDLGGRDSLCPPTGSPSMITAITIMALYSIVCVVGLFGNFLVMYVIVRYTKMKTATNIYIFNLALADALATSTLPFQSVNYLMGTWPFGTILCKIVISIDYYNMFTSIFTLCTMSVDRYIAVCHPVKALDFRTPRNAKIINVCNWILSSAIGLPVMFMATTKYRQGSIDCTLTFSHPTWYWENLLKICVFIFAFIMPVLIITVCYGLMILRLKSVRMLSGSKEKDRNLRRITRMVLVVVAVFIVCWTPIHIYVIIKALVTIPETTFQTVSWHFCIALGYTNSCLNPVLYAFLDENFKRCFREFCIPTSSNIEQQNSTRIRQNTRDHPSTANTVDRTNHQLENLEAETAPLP", "assay": "CEREP panel", "assay_type": "binding", "conditions": "10 µM"}, "N muscle-type (h)": {"target": "T4, N muscle-type (h) (Homo sapiens, UniProt P02708+P07510+P11230+Q07001)", "T4 construct": "CEREP (contract assay)", "T4 sequence (P02708 21-457)": "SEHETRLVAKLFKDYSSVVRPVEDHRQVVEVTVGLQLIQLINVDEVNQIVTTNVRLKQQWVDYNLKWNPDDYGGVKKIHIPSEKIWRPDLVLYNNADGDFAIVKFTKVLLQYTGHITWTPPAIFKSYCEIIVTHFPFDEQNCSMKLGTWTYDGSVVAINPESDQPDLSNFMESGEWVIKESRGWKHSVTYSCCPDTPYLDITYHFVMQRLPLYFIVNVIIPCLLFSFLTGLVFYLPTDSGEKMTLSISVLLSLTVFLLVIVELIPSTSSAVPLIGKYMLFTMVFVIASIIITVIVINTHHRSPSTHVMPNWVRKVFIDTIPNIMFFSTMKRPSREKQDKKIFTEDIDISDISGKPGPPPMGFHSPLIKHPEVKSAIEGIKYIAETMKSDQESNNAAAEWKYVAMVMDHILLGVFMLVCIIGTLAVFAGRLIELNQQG", "T4 sequence (P11230 24-501)": "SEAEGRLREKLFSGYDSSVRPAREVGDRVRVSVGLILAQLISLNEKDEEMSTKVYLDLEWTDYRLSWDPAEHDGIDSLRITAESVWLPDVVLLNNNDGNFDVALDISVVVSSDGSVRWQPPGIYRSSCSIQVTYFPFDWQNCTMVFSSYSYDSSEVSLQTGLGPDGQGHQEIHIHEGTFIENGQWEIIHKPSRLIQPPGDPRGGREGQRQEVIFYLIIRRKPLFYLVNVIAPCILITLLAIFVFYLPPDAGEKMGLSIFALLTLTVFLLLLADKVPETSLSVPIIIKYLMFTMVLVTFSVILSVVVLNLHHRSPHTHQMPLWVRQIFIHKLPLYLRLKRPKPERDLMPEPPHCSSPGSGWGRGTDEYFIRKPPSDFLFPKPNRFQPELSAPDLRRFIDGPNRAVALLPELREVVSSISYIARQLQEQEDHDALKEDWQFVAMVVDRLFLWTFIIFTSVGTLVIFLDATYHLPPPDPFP", "T4 sequence (Q07001 22-517)": "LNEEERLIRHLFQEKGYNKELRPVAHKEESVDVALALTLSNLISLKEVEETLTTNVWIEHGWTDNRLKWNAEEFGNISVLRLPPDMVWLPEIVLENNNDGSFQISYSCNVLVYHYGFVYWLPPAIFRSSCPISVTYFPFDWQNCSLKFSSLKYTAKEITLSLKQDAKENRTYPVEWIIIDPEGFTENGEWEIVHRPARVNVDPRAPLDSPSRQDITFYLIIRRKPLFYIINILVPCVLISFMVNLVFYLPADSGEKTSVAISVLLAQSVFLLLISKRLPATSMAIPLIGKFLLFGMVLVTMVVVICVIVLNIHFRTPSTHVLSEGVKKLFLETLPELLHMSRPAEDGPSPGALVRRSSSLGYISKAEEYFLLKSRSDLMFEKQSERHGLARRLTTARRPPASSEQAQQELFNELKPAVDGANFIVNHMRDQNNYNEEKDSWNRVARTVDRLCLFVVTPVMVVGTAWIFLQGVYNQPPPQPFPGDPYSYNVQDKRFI", "T4 sequence (P07510 23-517)": "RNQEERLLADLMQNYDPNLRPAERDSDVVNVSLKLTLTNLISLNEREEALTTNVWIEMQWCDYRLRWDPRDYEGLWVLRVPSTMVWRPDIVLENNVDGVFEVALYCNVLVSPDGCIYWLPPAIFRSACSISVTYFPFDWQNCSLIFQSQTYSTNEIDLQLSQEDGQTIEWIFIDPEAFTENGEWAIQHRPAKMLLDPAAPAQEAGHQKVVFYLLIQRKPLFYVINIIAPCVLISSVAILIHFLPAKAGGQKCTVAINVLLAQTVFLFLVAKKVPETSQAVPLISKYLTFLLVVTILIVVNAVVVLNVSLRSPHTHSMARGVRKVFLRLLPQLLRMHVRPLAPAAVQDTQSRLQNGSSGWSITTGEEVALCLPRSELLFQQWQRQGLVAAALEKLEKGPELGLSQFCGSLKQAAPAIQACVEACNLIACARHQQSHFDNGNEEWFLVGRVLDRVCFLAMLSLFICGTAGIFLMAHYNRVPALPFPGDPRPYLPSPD", "assay": "CEREP panel", "assay_type": "binding", "conditions": "10 µM"}, "[2]": {"conditions": "1 μM"}, "[3]": {"conditions": "1 μM", "remark": "listed apart in the source"}, "[4]": {"conditions": "1 μM", "remark": "listed apart in the source"}, "[5]": {"test_system": "AEA cellular uptake in HMC-1 cells", "assay": "cells", "assay_type": "cell-based, human", "conditions": "read-out: AEA reuptake IC50 (95% CI) HMC-1 cells; FAAH-deficient cells"}, "Rat recombinant TRPM8": {"target": "T5, Rat recombinant TRPM8 (Rattus norvegicus, UniProt Q8R455)", "T5 construct": "expressed in transfected cells; host or cells: HEK293 (TRPM8-HEK-293, gift from Mario van der Stelt)", "T5 sequence (Q8R455 whole entry)": "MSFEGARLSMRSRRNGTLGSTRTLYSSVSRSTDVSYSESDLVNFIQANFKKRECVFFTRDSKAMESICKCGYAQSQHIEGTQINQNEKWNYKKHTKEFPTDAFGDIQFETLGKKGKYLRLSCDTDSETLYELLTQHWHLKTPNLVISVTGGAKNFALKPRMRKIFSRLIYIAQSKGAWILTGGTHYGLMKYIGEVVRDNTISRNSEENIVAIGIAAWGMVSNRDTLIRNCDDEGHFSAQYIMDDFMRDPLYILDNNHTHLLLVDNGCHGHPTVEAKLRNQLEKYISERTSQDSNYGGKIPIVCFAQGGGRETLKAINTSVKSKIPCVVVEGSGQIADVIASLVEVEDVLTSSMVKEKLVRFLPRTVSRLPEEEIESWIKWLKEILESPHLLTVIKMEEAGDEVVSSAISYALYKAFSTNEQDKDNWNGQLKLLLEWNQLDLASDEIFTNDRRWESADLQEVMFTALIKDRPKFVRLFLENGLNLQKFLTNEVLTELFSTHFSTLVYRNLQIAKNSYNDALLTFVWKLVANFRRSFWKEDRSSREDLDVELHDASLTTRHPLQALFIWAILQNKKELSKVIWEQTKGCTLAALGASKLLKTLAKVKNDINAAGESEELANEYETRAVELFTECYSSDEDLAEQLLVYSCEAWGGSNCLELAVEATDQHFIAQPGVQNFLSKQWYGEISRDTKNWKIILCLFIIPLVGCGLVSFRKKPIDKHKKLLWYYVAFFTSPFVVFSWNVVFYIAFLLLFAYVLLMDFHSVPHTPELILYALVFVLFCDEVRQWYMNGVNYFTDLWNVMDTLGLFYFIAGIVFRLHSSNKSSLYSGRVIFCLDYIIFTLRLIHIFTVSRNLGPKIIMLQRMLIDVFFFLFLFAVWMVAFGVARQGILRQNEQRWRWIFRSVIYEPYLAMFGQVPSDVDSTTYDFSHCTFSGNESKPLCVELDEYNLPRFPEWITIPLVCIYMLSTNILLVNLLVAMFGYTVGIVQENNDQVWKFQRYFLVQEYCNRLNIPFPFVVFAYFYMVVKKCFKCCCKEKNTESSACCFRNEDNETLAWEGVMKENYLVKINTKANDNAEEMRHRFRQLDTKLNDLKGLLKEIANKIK", "assay": "TRP channel [Ca2+]i assay", "assay_type": "cell-based", "conditions": "read-out: TRPM8 IC50 for antagonism of icilin"}, "Rat recombinant TRPV3": {"target": "T6, Rat recombinant TRPV3 (Rattus norvegicus, UniProt Q4QYD9)", "T6 construct": "expressed in transfected cells; host or cells: HEK293 (TRPV3-HEK-293, gift from HB Bradshaw, Indiana University)", "T6 sequence (Q4QYD9 1-791)": "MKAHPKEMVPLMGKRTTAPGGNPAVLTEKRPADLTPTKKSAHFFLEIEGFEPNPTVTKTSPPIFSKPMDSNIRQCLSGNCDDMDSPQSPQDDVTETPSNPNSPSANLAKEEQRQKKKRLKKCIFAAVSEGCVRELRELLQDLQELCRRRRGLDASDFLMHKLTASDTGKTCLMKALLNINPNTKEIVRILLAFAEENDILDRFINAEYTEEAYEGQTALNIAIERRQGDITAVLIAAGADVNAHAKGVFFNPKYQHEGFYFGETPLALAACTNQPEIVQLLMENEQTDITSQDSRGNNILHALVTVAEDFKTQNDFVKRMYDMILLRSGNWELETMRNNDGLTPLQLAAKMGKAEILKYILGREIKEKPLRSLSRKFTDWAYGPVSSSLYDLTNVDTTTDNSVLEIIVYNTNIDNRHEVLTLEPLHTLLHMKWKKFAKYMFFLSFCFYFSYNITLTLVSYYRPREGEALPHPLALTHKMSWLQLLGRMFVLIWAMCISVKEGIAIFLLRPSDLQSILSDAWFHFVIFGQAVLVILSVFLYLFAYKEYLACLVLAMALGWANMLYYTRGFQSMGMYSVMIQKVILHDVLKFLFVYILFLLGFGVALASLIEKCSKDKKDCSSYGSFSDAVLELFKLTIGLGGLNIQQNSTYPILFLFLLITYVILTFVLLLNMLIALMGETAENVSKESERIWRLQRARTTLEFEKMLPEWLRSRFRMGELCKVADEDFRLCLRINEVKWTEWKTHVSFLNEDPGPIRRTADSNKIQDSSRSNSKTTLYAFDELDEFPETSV", "assay": "cell-based", "assay_type": "cell-based"}, "Rat recombinant TRPV4": {"target": "T7, Rat recombinant TRPV4 (Rattus norvegicus, UniProt Q9ERZ8)", "T7 construct": "expressed in transfected cells; host or cells: HEK293 (TRPV4-HEK-293, gift from HB Bradshaw, Indiana University)", "T7 sequence (Q9ERZ8 whole entry)": "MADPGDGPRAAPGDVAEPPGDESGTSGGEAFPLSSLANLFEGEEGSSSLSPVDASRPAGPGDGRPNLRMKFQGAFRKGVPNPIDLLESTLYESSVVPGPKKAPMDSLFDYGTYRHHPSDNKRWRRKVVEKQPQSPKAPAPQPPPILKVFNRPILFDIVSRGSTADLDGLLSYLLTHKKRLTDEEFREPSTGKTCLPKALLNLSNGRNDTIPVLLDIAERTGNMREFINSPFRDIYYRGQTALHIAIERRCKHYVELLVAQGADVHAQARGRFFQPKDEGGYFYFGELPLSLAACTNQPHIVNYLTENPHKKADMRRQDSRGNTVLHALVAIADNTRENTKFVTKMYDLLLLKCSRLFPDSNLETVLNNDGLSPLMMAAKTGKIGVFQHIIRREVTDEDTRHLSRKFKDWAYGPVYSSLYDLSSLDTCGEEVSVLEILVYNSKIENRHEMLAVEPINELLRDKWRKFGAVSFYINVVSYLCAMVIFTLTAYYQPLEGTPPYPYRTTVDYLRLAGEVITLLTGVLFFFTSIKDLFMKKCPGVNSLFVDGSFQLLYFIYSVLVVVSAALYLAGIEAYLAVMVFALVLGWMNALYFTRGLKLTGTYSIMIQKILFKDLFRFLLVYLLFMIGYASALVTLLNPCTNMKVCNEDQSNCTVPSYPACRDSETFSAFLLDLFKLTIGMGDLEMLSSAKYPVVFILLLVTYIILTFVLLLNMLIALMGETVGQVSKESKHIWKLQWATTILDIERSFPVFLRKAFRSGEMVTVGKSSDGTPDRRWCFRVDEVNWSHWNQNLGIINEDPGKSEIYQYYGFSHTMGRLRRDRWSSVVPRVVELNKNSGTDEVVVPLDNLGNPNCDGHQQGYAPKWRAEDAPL", "assay": "cell-based", "assay_type": "cell-based"}, "hCB1R": {"target": "T8, hCB1R (Homo sapiens, UniProt P21554)", "T8 construct": "host or cells: CHO", "assay": "cell-based", "assay_type": "cell-based"}},
  "note": "Where two headings read alike, the source gives them in different places.",
  "data": [
    {"molecule": "CCCn1c(C)c(C(=O)c2cccc3ccccc23)c2ccccc21", "note": "[JWH015]", "values": [
      {"measurement": "GPR55 pEC50 (± SEM)", "setting": "hGPR55", "value": "< 5"},
      {"measurement": "% inhibition beta 1 (h)", "setting": "beta 1 (h)", "value": 7, "unit": "%"},
      {"measurement": "% inhibition Ca2+ channel (L, diltiazem site)", "setting": "[1]", "value": 33, "unit": "%"},
      {"measurement": "% inhibition mu (MOP) (h)", "setting": "mu (MOP) (h)", "value": 7, "unit": "%"},
      {"measurement": "% inhibition N muscle-type (h)", "setting": "N muscle-type (h)", "value": -12, "unit": "%"},
      {"measurement": "CL microsomes mouse", "setting": "[2]", "value": 989, "unit": "µL/min/mg protein"},
      {"measurement": "CL hepatocytes human", "setting": "[3]", "value": 16, "unit": "µL/min/mio cells"},
      {"measurement": "CL hepatocytes mouse", "setting": "[4]", "value": 205, "unit": "µL/min/mio cells"}
    ]},
    {"molecule": "Cc1c(C(=O)c2cccc3ccccc23)c2cccc3c2n1[C@H](CN1CCOCC1)CO3", "note": "[WIN55212-2]", "values": [
      {"measurement": "GPR55 pEC50 (± SEM)", "setting": "hGPR55", "value": "< 5"},
      {"measurement": "IC50", "setting": "[5]", "value": "> 5", "unit": "µM"},
      {"measurement": "IC50", "setting": "Rat recombinant TRPM8; vs icilin 0.1μM (second value in cell)", "value": "19 ± 2.2", "unit": "µM"},
      {"measurement": "IC50", "setting": "Rat recombinant TRPM8; vs icilin […]", "value": "72.9 ± 4.5", "unit": "µM"},
      {"measurement": "TRPV3 Efficacy (% ionomycin 4μM)", "setting": "Rat recombinant TRPV3", "value": 22.9, "unit": "%"},
      {"measurement": "EC50", "setting": "Rat recombinant TRPV3; read-out: TRPV3 Potency EC50", "value": 6.5, "unit": "µM"},
      {"measurement": "IC50", "setting": "Rat recombinant TRPV3; vs thymol 100μM, read-out: TRPV3 IC50 for antagonism or desensitization", "value": "> 100", "unit": "µM"},
      {"measurement": "TRPV4 Efficacy (% ionomycin 4μM)", "setting": "Rat recombinant TRPV4", "value": "< 10", "unit": "%"},
      {"measurement": "IC50", "setting": "Rat recombinant TRPV4; vs 4αPDD 1μM, read-out: TRPV4 IC50 for desensitization", "value": "16.1 ± 1.7", "unit": "µM"},
      {"measurement": "% inhibition beta 1 (h)", "setting": "beta 1 (h)", "value": 6, "unit": "%"},
      {"measurement": "% inhibition Ca2+ channel (L, diltiazem site)", "setting": "[1]", "value": 55, "unit": "%"},
      {"measurement": "% inhibition mu (MOP) (h)", "setting": "mu (MOP) (h)", "value": 21, "unit": "%"},
      {"measurement": "% inhibition N muscle-type (h)", "setting": "N muscle-type (h)", "value": 7, "unit": "%"},
      {"measurement": "CL microsomes mouse", "setting": "[2]", "value": 745, "unit": "µL/min/mg protein"},
      {"measurement": "CL hepatocytes human", "setting": "[3]", "value": 42, "unit": "µL/min/mio cells"},
      {"measurement": "CL hepatocytes mouse", "setting": "[4]", "value": 568, "unit": "µL/min/mio cells"}
    ]},
    {"molecule": "SR144528", "values": [
      {"measurement": "Emax ± SEM pERK hCB1R", "setting": "hCB1R", "value": "-21 ± 2"},
      {"measurement": "IC50", "setting": "[5]", "value": "> 10", "unit": "µM"},
      {"measurement": "TRPV3 Efficacy (% ionomycin 4μM)", "setting": "Rat recombinant TRPV3", "value": "< 10", "unit": "%"},
      {"measurement": "TRPV4 Efficacy (% ionomycin 4μM)", "setting": "Rat recombinant TRPV4", "value": "< 10", "unit": "%"},
      {"measurement": "% inhibition beta 1 (h)", "setting": "beta 1 (h)", "value": 41, "unit": "%"},
      {"measurement": "% inhibition Ca2+ channel (L, diltiazem site)", "setting": "[1]", "value": 10, "unit": "%"},
      {"measurement": "% inhibition mu (MOP) (h)", "setting": "mu (MOP) (h)", "value": 11, "unit": "%"},
      {"measurement": "% inhibition N muscle-type (h)", "setting": "N muscle-type (h)", "value": -3, "unit": "%"}
    ]}
  ]
}
